As usually defined, the IC50 is the concentration at which inhibition is half-maximal. Lower therefore signals greater potency in that assay. One may read the Ki as a dissociation constant, usually derived from enzyme kinetics or from competition with a known ligand. Higher therefore signals a looser hold on the target.

The source of these data is patent publication US10988477B2 (Merck Patent GmbH, priority 2018, dated 2021).

Assay [1] concerns the target intracellular GCN2 (phosphorylation of the GCN2 substrate eIF2α) (Homo sapiens, UniProt Q9P2K8). Briefly: GCN2 cellular inhibition assay (AlphaScreen SureFire P-eIF2α Ser51, borrelidin-treated U2OS cells). The format is cell-based. The conditions noted are these: compounds of Formula II; biomarker assay, phosphorylated eIF2α Ser51 in borrelidin-treated U2OS cells. In short, it runs like this:
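Read-out: AlphaScreen SureFire phospho-eIF2α (Ser51) signal in U2OS lysates. Cells get 4-fold compound dilutions (top 40 μM final) plus 10 μM borrelidin, 1 h, 37 °C. Percent inhibition is relative to borrelidin-alone controls.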
In general terms: Bead proximity is the source of the signal in Alpha formats.

The target in a further assay is GCN2 kinase (Homo sapiens, UniProt Q9P2K8). Briefly: GCN2 enzyme inhibition assay (Transcreener ADP2 fluorescence polarization). In kind it is biochemical. The conditions noted are these: compounds of Formula II; 280 μM ATP, 4 nM GCN2 kinase. The method in brief:
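Human GCN2 (4 nM) preincubated 10 min with compound (0–8 μM) and 200 μM (RS)7 peptide in Tris-HCl pH 7.5, NaCl, MgCl2, DTT. Reaction started with 280 μM ATP, run 1 h at 25 °C. ADP detected by Transcreener fluorescence polarization. IC50 and Ki(app) fitted by tight-binding algorithm.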
A general note: Polarisation of emitted light reports the rotation of a fluorescent probe.

intracellular GCN2 (phosphorylation of the GCN2 substrate eIF2α), sequence (Q9P2K8 whole entry): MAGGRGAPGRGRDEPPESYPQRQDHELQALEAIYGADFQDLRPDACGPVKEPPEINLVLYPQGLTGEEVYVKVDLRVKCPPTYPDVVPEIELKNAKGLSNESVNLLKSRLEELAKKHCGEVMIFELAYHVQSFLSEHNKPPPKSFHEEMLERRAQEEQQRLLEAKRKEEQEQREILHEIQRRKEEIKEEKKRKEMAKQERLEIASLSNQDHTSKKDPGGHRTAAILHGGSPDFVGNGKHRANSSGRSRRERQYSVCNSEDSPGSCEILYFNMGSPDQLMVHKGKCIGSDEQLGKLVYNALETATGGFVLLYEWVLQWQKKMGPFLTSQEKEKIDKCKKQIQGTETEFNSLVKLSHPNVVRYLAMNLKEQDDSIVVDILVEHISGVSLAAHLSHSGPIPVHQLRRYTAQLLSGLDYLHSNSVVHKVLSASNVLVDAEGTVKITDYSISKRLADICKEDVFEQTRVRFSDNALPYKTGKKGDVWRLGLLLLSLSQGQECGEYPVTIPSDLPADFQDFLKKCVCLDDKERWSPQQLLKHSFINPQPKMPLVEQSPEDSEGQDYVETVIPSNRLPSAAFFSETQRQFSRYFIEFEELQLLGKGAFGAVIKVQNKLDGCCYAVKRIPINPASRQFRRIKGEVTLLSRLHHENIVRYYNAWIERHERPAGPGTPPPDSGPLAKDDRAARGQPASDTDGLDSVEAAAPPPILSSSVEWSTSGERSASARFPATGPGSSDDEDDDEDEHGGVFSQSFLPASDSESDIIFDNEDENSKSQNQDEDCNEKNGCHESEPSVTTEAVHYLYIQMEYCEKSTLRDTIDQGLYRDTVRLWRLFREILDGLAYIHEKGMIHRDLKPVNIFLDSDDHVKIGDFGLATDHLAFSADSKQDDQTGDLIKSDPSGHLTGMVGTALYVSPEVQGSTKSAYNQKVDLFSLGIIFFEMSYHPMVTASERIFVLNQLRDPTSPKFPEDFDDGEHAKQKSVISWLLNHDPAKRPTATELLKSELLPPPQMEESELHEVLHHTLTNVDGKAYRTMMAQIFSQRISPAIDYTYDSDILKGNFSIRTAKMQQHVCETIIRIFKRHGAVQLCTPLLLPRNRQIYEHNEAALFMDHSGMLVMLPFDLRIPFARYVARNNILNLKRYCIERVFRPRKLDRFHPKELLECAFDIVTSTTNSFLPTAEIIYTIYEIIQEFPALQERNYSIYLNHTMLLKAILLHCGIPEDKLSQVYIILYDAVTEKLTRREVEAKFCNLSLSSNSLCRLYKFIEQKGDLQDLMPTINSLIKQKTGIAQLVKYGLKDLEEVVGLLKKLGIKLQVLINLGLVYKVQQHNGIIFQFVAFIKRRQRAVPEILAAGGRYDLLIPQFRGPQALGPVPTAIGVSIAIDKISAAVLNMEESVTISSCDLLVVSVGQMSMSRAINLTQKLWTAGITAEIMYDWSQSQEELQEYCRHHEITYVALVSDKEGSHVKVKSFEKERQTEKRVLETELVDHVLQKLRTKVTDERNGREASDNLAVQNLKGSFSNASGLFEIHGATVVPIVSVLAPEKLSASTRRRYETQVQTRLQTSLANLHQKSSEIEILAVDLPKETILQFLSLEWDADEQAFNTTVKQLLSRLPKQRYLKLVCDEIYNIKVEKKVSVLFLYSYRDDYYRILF
GCN2 kinase, sequence (Q9P2K8 whole entry): as above

In turn, `FC(F)c1ccc2ncc(-c3ccnc(N4CCOC(c5cn[nH]c5)C4)c3)n2n1` (stereo not shown) [II-108, 4-(4-(6-(Difluoromethyl)imidazo[1,2-b]pyridazin-3-yl)pyridin-2-yl)-2-(1H-pyrazol-4-yl)morpholine] returned a 50% inhibitory concentration (IC50) in assay [1] of 500 to 5000 nM. Besides, at GCN2 kinase, the inhibition constant (Ki) is 10 to 1000 nM.
As for `CN(CC1CCCN(c2cc(-c3cnc4ccc(C(F)F)nn34)ccn2)C1)S(C)(=O)=O` (stereo not shown) [II-109, N-((1-(4-(6-(Difluoromethyl)imidazo[1,2-b]pyridazin-3-yl)pyridin-2-yl)piperidin-3-yl)methyl)-N-methylmethanesulfonamide], the concentration for half-maximal inhibition (IC50) in assay [1] lay in the range of 500 to 5000 nM. In addition, the Ki at GCN2 kinase was 10 to 1000 nM.
The like results for `CS(=O)(=O)NC[C@@H]1CN(c2ccnc(-c3cnc4ccc(C(F)F)nn34)c2)CCO1` [II-110, (S)—N-((4-(2-(6-(Difluoromethyl)imidazo[1,2-b]pyridazin-3-yl)pyridin-4-yl)morpholin-2-yl)methyl)methanesulfonamide] were, in that order, < 500 nM and < 10 nM.
Taken in the same sequence, the figures for `CS(=O)(=O)NC[C@H]1CCCN(c2cc(-c3cnc4ccc(C(F)F)nn34)cc(O)n2)C1` [II-111, (S)—N-((1-(4-(6-(Difluoromethyl)imidazo[1,2-b]pyridazin-3-yl)-6-oxo-1,6-dihydropyridin-2-yl)piperidin-3-yl)methyl)methanesulfonamide] were 500 to 5000 nM and < 10 nM.
`CS(=O)(=O)NCC1CN(c2cc(-c3cnc4ccc(C(F)F)nn34)ncn2)CCC1O` (stereo not shown) [II-112, N-((1-(6-(6-(Difluoromethyl)imidazo[1,2-b]pyridazin-3-yl)pyrimidin-4-yl)-4-hydroxypiperidin-3-yl)methyl)methanesulfonamide] yielded a 50% inhibitory concentration (IC50) in assay [1] of 500 to 5000 nM. Besides, the inhibition constant Ki at GCN2 kinase is < 10 nM.
Turning to `OCCn1cc(-c2cc(-c3cnc4ccc(C(F)F)nn34)ccn2)cn1` [II-113, 2-(4-(4-(6-(Difluoromethyl)imidazo[1,2-b]pyridazin-3-yl)pyridin-2-yl)-1H-pyrazol-1-yl)ethanol], the half-maximal inhibitory concentration (IC50) in assay [1] lay in the range of 500 to 5000 nM. The compound also registered a Ki at GCN2 kinase of 10 to 1000 nM.
As for `CC(C)(NS(C)(=O)=O)C1CCCN(c2cc(-c3cnc4ccc(C(F)F)nn34)ccn2)C1` (stereo not shown) [II-114, N-(2-(1-(4-(6-(Difluoromethyl)imidazo[1,2-b]pyridazin-3-yl)pyridin-2-yl)piperidin-3-yl)propan-2-yl)methanesulfonamide], the concentration for half-maximal inhibition (IC50) in assay [1] is > 5000 nM. Moreover, at GCN2 kinase, the inhibitory constant (Ki) lay within 10 to 1000 nM.
As to `CC1(CNS(C)(=O)=O)CCCN(c2cc(-c3cnc4ccc(C(F)F)nn34)ccn2)C1` (stereo not shown) [II-115, N-((1-(4-(6-(Difluoromethyl)imidazo[1,2-b]pyridazin-3-yl)pyridin-2-yl)-3-methylpiperidin-3-yl)methyl)methanesulfonamide], the half-maximal inhibitory concentration (IC50) in assay [1] lay within 500 to 5000 nM. Further, the Ki at GCN2 kinase is 10 to 1000 nM.
With `CNc1cc(-c2cnc3ccc(C(F)F)nn23)cc(N2CCCC(CNS(C)(=O)=O)C2)n1` (stereo not shown) [II-116, N-((1-(4-(6-(Difluoromethyl)imidazo[1,2-b]pyridazin-3-yl)-6-(methylamino)pyridin-2-yl)piperidin-3-yl)methyl)methanesulfonamide], the IC50 in assay [1] lay in the range of 500 to 5000 nM. Besides, the Ki on GCN2 kinase was < 10 nM.
With `CS(=O)(=O)NCC1CCCN(c2cc(-c3cnc4ccc(C(F)F)nn34)cnc2C#N)C1` (stereo not shown) [II-117, N-((1-(2-Cyano-5-(6-(difluoromethyl)imidazo[1,2-b]pyridazin-3-yl)pyridin-3-yl)piperidin-3-yl)methyl)methanesulfonamide], in assay [1], the IC50 was 500 to 5000 nM. On GCN2 kinase, this compound showed a Ki of 10 to 1000 nM.
In assay [1], `CC1CN(c2cc(-c3cnc4ccc(C(F)F)nn34)ccn2)CC(CNS(C)(=O)=O)O1` (stereo not shown) [II-118, N-((4-(4-(6-(Difluoromethyl)imidazo[1,2-b]pyridazin-3-yl)pyridin-2-yl)-6-methylmorpholin-2-yl)methyl)methanesulfonamide] yielded a half-maximal inhibitory concentration (IC50) of 500 to 5000 nM. Moreover, the inhibition constant (Ki) on GCN2 kinase lay in the range of 10 to 1000 nM.
